Laboratory results published in US20140148446A1, “COMPOUNDS THAT ENABLE ALTERNATIVE MITOCHONDRIAL ELECTRON TRANSFER” (University of North Texas Health Science Center, priority 2010, published 2014).

Tests used:
HT-22 cells [1] = experiment: Protection against ROS production induced by glutamate in HT-22 cells; format: cell-based; settings: for Potency and efficacy of the protective action on reactive oxygen species production (FIG. 11): compared with methylene blue
HT-22 cells [2] = experiment: Protection against mitochondrial membrane potential collapse induced by glutamate in HT-22 cells; format: cell-based; settings: for Potency and efficacy of the protective action on mitochondrial membrane potential collapse (FIG. 12): compared with methylene blue
HT-22 cells [3] = experiment: Protection against cell death (cell viability) induced by glutamate in HT-22 cells; format: cell-based; settings: for Potency and efficacy of the protective action on cell viability (FIG. 10): glutamate toxicity, compared with methylene blue
Method: HT-22 cells (gift from Dr. David Schubert, Salk Institute, San Diego, Calif.) were plated at 4,000 cells per well in 96 well plates and cultured over night. […] At the end of the 24 hours, the medium was removed and the plates were rinsed with PBS and incubated with 10 μM calcein-AM (Invitrogen, Carlsbad, Calif.) in PBS for 20 minutes. […] Cell culture wells treated with bleach before rinsing were used as blank.

[4] = system: mitochondrial complex I-III; format: biochemical, rat; settings: for Inhibition of complex I-III activity: inhibitor alone
Method: (§1) Fresh rat heart was removed and placed in ice-cold mitochondrial isolation buffer containing 210 mM mannitol, 70 mM sucrose, 5 mM HEPES, and 1 mM EDTA, pH 7. The heart was homogenized immediately, and the mitochondrial fraction was isolated by differential centrifugation as described previously (Trounce et al., 1996). Mitochondria were stored at −80° C. until subsequent analysis.
(§2) All mitochondrial activity assays were performed according to previous publications with minimal modifications for complex I (Lenaz et al., 2004), complex I-III, complex II, complex III, and II-III (Trounce et al., 1996). […] Complex I activity was monitored by adding NADH to the mix with or without rotenone/antimycin A. The final data were normalized to blank values at time zero. The reaction was monitored in a kinetic spectrophotometer at 340 nm. Complex I activity was measured in arbitrary units and normalized to control levels for statistical analysis. Isolated mitochondria equivalent to 40-200 μg mitochondrial protein was used for each assay, except for assays with inhibitors, when larger amount of mitochondria (3 to 5 folds) were used to ensure that inhibition was distinguishable. Final data were normalized to control levels. For complex I-III activity, the reaction was initiated with the addition of NADH, cyt c was used as final substrate and its reduction was monitored at 550 nm. For assay of complex II-III activity, succinate was added instead of NADH, and the electron transfer to cyt c was performed according to previous publications (Atamna et al., 2008). To test whether the electrons from the reduced form of MB (MBH2) can be transferred to cyt c in mitochondrial lysate, we added 10 μM 2,7-dichlorofluorescin (DCFH, Invitrogen, Carlsbad, Calif.) to the reaction system. Free radicals convert non-fluorescent DCFH to highly fluorescent DCF (Ex, 488 nm, and Em, 530 nm). In the presence of cyt c, which accepts electrons from MBH2, conversion of DCFH to DCF is decreased.

mitochondrial complex I = experiment: Mitochondrial complex I activity assay (NADH dehydrogenase); format: biochemical, rat
Method: as §1, §2

[5] = system: mitochondrial complex II-III; experiment: Mitochondrial complex II-III activity in extracted mitochondria; format: biochemical, rat; settings: inhibitor alone
Method: as §1
All mitochondrial activity assays were performed according to previous publications with minimal modifications for complex I (Lenaz et al., 2004), complex I-III, complex II, complex III, and II-III (Trounce et al., 1996). […] Complex I activity was monitored by adding NADH to the mix with or without rotenone/antimycin A. The final data were normalized to blank values at time zero. The reaction was monitored in a kinetic spectrophotometer at 340 nm. Complex I activity was measured in arbitrary units and normalized to control levels for statistical analysis. Isolated mitochondria equivalent to 40-200 μg mitochondrial protein was used for each assay, except for assays with inhibitors, when larger amount of mitochondria (3 to 5 folds) were used to ensure that inhibition was distinguishable. Final data were normalized to control levels. For complex I-III activity, the reaction was initiated with the addition of NADH, cyt c was used as final substrate and its reduction was monitored at 550 nm. […]

[6] = Mus musculus, glutamate, HT-22 cells, read-out: Protection against cell death (EC50)
[7] = glutamate, HT-22 cells, read-out: Protection against cell death (EC50)

Row | Compound | EC50 (HT-22 cells [1]; Mus musculus) | EC50 (HT-22 cells [2]; Mus musculus) | EC50 (HT-22 cells [3]; [6]) | Potency and efficacy of the protective action on reactive oxygen species production (FIG. 11) (HT-22 cells [1]) | Potency and efficacy of the protective action on mitochondrial membrane potential collapse (FIG. 12) (HT-22 cells [2]) | Potency and efficacy of the protective action on cell viability (FIG. 10) (HT-22 cells [3]; HT-22 cells) | further results
1 | Clc1ccc2c(c1)Nc1ccccc1S2 [2-chlorophenothiazine] | 84.1 nM | 45.1 nM | 4.57 nM | – | – | – | –
2 | CC(=O)N1c2ccc(N(C)C)cc2Sc2cc(N(C)C)ccc21 [Acetyl-MB, acetyl-methylene blue] | – | – | – | – | – | – | Ability to enhance electron transfer between complex I and III ([4]; redox center disabled by N-acetylation): completely lost its ability to enhance electron transfer
3 | C1=Cc2ccccc2Nc2ccccc21 [Iminostilbene] | 484 nM | 61.7 nM | 189 nM | – | – | – | –
4 | CN(C)CCCN1c2ccccc2Sc2ccc(Cl)cc21 [chlorpromazine] | 2150 nM | 3270 nM | 2190 nM | significantly decrease the potency and efficacy | significantly decrease the potency and efficacy | significantly decreases the potency and efficacy | –
5 | CN(C)CCCN1c2ccccc2CCc2ccccc21 [impramine] | 84600 nM | 29100 nM | 51900 nM | significantly decrease the potency and efficacy | significantly decrease the potency and efficacy | significantly decreases the potency and efficacy | –
6 | Cc1cc2nc3ccc(N(C)C)cc3nc2cc1N.Cl [neutral red] | – | – | – | significantly decrease the potency and efficacy | significantly decrease the potency and efficacy | significantly decrease the potency and efficacy | EC50 (HT-22 cells [1]): 15800 nM; EC50 (HT-22 cells [2]): 8960 nM; EC50 (HT-22 cells [3]; [7]): 5840 nM
7 | c1ccc2c(c1)Nc1ccccc1S2 [phenothiazine] | 57.2 nM | 21.2 nM | – | – | – | – | EC50 (HT-22 cells [3]; Mus musculus, HT-22, read-out: Protection against cell death (EC50)): 19 nM
8 | CC(CN1c2ccccc2Sc2ccccc21)N(C)C (stereo not drawn) [promethazine] | 9690 nM | 214 nM | 2060 nM | significantly decrease the potency and efficacy | significantly decrease the potency and efficacy | significantly decreases the potency and efficacy | –
9 | C=C(C)[C@H]1Cc2c(ccc3c2O[C@@H]2COc4cc(OC)c(OC)cc4[C@@H]2C3=O)O1 [rotenone] | – | – | – | – | – | – | Inhibition of complex I-III activity [4]: 90%; Inhibition of complex I activity (mitochondrial complex I; CoQ1 as substrate): above 95%; Inhibition of complex I activity (mitochondrial complex I; MB as substrate, maximum rotenone concentrations): 26.7%
10 | Cc1cc2nc3ccc(N(C)C)cc3[s+]c2cc1N [toluidine blue] | – | – | – | – | – | – | EC50 (HT-22 cells [1]): 0.106 nM; EC50 (HT-22 cells [2]): 1.54 nM; EC50 (HT-22 cells [3]; [7]): 1.75 nM
11 | antimycin A | – | – | – | – | – | – | Inhibition of complex I-III activity [4]: 70%; Inhibition of complex II-III activity [5]: 80%
